Assay results from the NIST ThermoML archive (doi:10.1016/j.tca.2015.02.020).

Experiment: molar heat capacity at constant pressure; xn = mol fraction of the nth substance listed
Details: 101 kPa, Small sample (50 mg) DSC

NCCCO [3-amino-1-propanol] + O
Details	molar heat capacity at constant pressure [J/K/mol]
125.42 K, Glass, x1 = 0.19	28.29
125.42 K, Glass, x1 = 0.26	32.2
126.01 K, Glass, x1 = 0.68	47.75
126.94 K, Glass, x1 = 0.19	29.15
127.1 K, Glass, x1 = 0.26	32.2
127.56 K, Glass, x1 = 0.16	28.24
127.59 K, Glass, x1 = 0.16	29.05
128.06 K, Glass, x1 = 0.68	51.16
129.29 K, Glass, x1 = 0.19	30.02
130.07 K, Glass, x1 = 0.26	33.19
130.83 K, Glass, x1 = 0.16	29.05
130.83 K, Glass, x1 = 0.68	52.29
131.76 K, Glass, x1 = 0.19	30.6
131.92 K, Glass, x1 = 0.26	33.19
132.24 K, Glass, x1 = 0.16	30.41
132.71 K, Glass, x1 = 0.68	52.86
133.95 K, Glass, x1 = 0.19	31.46
134.1 K, Glass, x1 = 0.16	30.14
134.11 K, Glass, x1 = 0.68	54
134.74 K, Glass, x1 = 0.26	34.17
135.04 K, Glass, x1 = 0.19	31.46
135.2 K, Glass, x1 = 0.26	33.85
136.92 K, Glass, x1 = 0.16	32.04
137.39 K, Glass, x1 = 0.68	54.57
138.63 K, Glass, x1 = 0.19	33.19
139.41 K, Glass, x1 = 0.26	35.49
140.66 K, Glass, x1 = 0.16	31.77
140.66 K, Glass, x1 = 0.68	56.27
141.59 K, Glass, x1 = 0.16	33.94
141.6 K, Glass, x1 = 0.19	33.48
141.75 K, Glass, x1 = 0.26	35.82
142.07 K, Glass, x1 = 0.68	56.27
143.47 K, Glass, x1 = 0.19	34.92
143.95 K, Glass, x1 = 0.16	32.58
143.95 K, Glass, x1 = 0.68	57.98
144.1 K, Glass, x1 = 0.26	36.47
144.88 K, Glass, x1 = 0.19	34.64
145.04 K, Glass, x1 = 0.26	36.8
146.28 K, Glass, x1 = 0.16	36.65
146.75 K, Glass, x1 = 0.68	56.84
148.16 K, Glass, x1 = 0.19	37.23
148.79 K, Glass, x1 = 0.26	39.1
150.53 K, Glass, x1 = 0.16	34.75
150.53 K, Glass, x1 = 0.68	60.25
150.98 K, Glass, x1 = 0.16	40.73
151.45 K, Glass, x1 = 0.68	57.98
151.46 K, Glass, x1 = 0.19	36.94
151.62 K, Glass, x1 = 0.26	39.1
152.86 K, Glass, x1 = 0.19	40.99
153.81 K, Glass, x1 = 0.16	36.65
153.82 K, Glass, x1 = 0.68	61.96
154.75 K, Glass, x1 = 0.19	38.39
154.91 K, Glass, x1 = 0.26	40.42
156.15 K, Glass, x1 = 0.68	60.25
160.4 K, Glass, x1 = 0.68	65.37
161.49 K, Glass, x1 = 0.26	45.02
163.69 K, Glass, x1 = 0.68	67.64
165.08 K, Liquid, x1 = 0.16	65.7
166.96 K, Liquid, x1 = 0.19	68.12
169.79 K, Liquid, x1 = 0.16	66.79
170.28 K, Liquid, x1 = 0.16	66.25
171.23 K, Liquid, x1 = 0.19	71.87
171.67 K, Liquid, x1 = 0.19	69.27
173.58 K, Liquid, x1 = 0.16	66.79
174.5 K, Liquid, x1 = 0.16	67.06
174.5 K, Liquid, x1 = 0.26	77.55
174.53 K, Liquid, x1 = 0.19	71.87
174.68 K, Liquid, x1 = 0.26	82.48
176.39 K, Liquid, x1 = 0.19	69.56
179.21 K, Liquid, x1 = 0.16	67.6
179.21 K, Liquid, x1 = 0.26	77.88
179.69 K, Liquid, x1 = 0.68	127.32
180.18 K, Liquid, x1 = 0.16	67.88
180.19 K, Liquid, x1 = 0.68	138.69
181.09 K, Liquid, x1 = 0.19	69.85
181.12 K, Liquid, x1 = 0.19	72.74
181.28 K, Liquid, x1 = 0.26	82.81
183.49 K, Liquid, x1 = 0.16	68.69
183.49 K, Liquid, x1 = 0.68	138.69
183.93 K, Liquid, x1 = 0.16	68.42
183.93 K, Liquid, x1 = 0.26	78.21
184.41 K, Liquid, x1 = 0.68	127.32
184.43 K, Liquid, x1 = 0.19	73.31
184.59 K, Liquid, x1 = 0.26	83.14
185.82 K, Liquid, x1 = 0.19	70.43
188.65 K, Liquid, x1 = 0.16	69.5
188.65 K, Liquid, x1 = 0.26	78.86
189.12 K, Liquid, x1 = 0.68	127.32
190.09 K, Liquid, x1 = 0.16	70.05
190.1 K, Liquid, x1 = 0.68	139.26
190.54 K, Liquid, x1 = 0.19	71.29
191.04 K, Liquid, x1 = 0.19	75.04
191.2 K, Liquid, x1 = 0.26	84.12
193.38 K, Liquid, x1 = 0.16	70.32
193.38 K, Liquid, x1 = 0.26	79.52
193.4 K, Liquid, x1 = 0.16	70.05
193.41 K, Liquid, x1 = 0.68	139.83
193.85 K, Liquid, x1 = 0.68	127.32
194.35 K, Liquid, x1 = 0.19	75.62
194.51 K, Liquid, x1 = 0.26	84.78
195.27 K, Liquid, x1 = 0.19	71.87
198.1 K, Liquid, x1 = 0.16	71.41
198.1 K, Liquid, x1 = 0.26	79.85
198.58 K, Liquid, x1 = 0.68	127.89
199.99 K, Liquid, x1 = 0.19	73.02
200.03 K, Liquid, x1 = 0.68	140.96
200.98 K, Liquid, x1 = 0.19	77.06
201.13 K, Liquid, x1 = 0.26	86.42
202.83 K, Liquid, x1 = 0.16	72.49
202.84 K, Liquid, x1 = 0.26	80.84
203.31 K, Liquid, x1 = 0.68	129.03
203.35 K, Liquid, x1 = 0.68	141.53
204.28 K, Liquid, x1 = 0.19	77.64
204.44 K, Liquid, x1 = 0.26	86.75
204.72 K, Liquid, x1 = 0.19	73.89
